“And” between values parts separate entries of the source, which are not always exact repeats. Equal entries are not always repeated.
Test system: S. aureus strain UNT144-3
Test: S. aureus neutropenic lung model (murine pneumonia model)
Format: in vivo, Staphylococcus aureus
Conditions: neutropenic mice, 100 mg/kg SC at 2 and 6 hrs post-infection, CFU assessed 24 hr
Protocol: In a non-limiting example, the sensitivity of two S. aureus clinical isolates, UNT109-3 (NRS234, native valve endocarditis) and UNT144-3, that have been previously utilized in animal models of infection, was evaluated vs. the individual phage and the 4-phage cocktail. […] The virulence of the two strains was then evaluated in the murine lung infection model. Female Hsd:ICR(CD-1) mice (Harlan Laboratories, Houston, Tex.) were administered 150 and 100 mg/kg cyclophosphamide on day −4 and day −1 prior to infection to render them neutropenic. Groups of 5 mice were then anaesthetized by intraperitoneal (IP) injection of 0.15 mL of a mixture of ketamine HCl (100 mg/kg body weight) plus xylazine (10 mg/kg body weight). Once anaesthetized, mice were infected intranasally by placing drops on the external nares and allowing inhalation of the 50 μl inoculum. Twenty-four hours after infection, mice were euthanized by CO2 inhalation and lungs processed for bacterial titers. Bacterial counts were enumerated on Brain Heart Infusion agar (Difco™ Laboratories)+0.5% activated charcoal (Sigma-Aldrich) plates for ease of recovering and detecting S. aureus (Barr, J. G., et al., J Clin. Pathol. (1987) 40:372-376). […]
Three phage cocktail treatment groups were evaluated for efficacy: 2×10^10 PFU/mL per phage, 2×10^9 PFU/mL per phage, and 2×10^8 PFU/mL per phage. […]

CN[C@H](CC(C)C)C(=O)N[C@H]1C(=O)N[C@@H](CC(N)=O)C(=O)N[C@H]2C(=O)N[C@H]3C(=O)N[C@H](C(=O)N[C@H](C(=O)O)c4cc(O)cc(O)c4-c4cc3ccc4O)[C@H](O)c3ccc(c(Cl)c3)Oc3cc2cc(c3O[C@@H]2O[C@H](CO)[C@@H](O)[C@H](O)[C@H]2O[C@H]2C[C@](C)(N)[C@H](O)[C@H](C)O2)Oc2ccc(cc2Cl)[C@H]1O [Vancomycin]
Mean ± SD logo CFU/Lung Pair: 5.55 log10 CFU/lung pair and 5.55 ± 1.1 log10 CFU/lung pair

— patent US11253557B2, “Therapeutic bacteriophage compositions” (priority 2015, dated 2022)
